From ChEMBL document CHEMBL1201862, “PubChem BioAssay data set” (2004)
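Exposure lasted 48 hours, with cells grown in 96-well plates and compounds tested at five concentrations. GI50: concentration for 50% inhibition of growth.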 The source made the active and inactive calls. No stated cut-off is given here; in the data, active = GI50 up to about 1.1 µM and inactive = higher.

Legend:
Experiment in all cases: NCI tumour cell line growth inhibition, 48 h
786-0 = tested on: 786-0
ACHN = tested on: ACHN
CAKI-1 = tested on: CAKI-1
HCC 2998 = tested on: HCC 2998
HCT-15 = tested on: HCT-15
HL-60 = tested on: HL-60
HOP-62 = tested on: HOP-62
M14 = tested on: M14
MOLT-4 = tested on: MOLT-4
NCI-H226 = tested on: NCI-H226
NCI-H23 = tested on: NCI-H23
OVCAR-5 = tested on: OVCAR-5
SK-MEL-5 = tested on: SK-MEL-5
SNB-75 = tested on: SNB-75
TK-10 = tested on: TK-10
UACC-62 = tested on: UACC-62
UO-31 = tested on: UO-31
DU-145 = tested on: DU-145
NCI/ADR-RES = tested on: NCI/ADR-RES

| SMILES | GI50 (786-0) | GI50 (ACHN) | GI50 (CAKI-1) | GI50 (HCC 2998) | GI50 (HCT-15) [µM] | GI50 (HL-60) | GI50 (HOP-62) | GI50 (M14) | GI50 (MOLT-4) | GI50 (NCI-H226) | GI50 (NCI-H23) | GI50 (OVCAR-5) | GI50 (SK-MEL-5) | GI50 (SNB-75) | GI50 (TK-10) | GI50 (UACC-62) | GI50 (UO-31) | GI50 (DU-145) | GI50 (NCI/ADR-RES) |
| --- | --- | --- | --- | --- | --- | --- | --- | --- | --- | --- | --- | --- | --- | --- | --- | --- | --- | --- | --- |
| CCCCOC(=O)CNC(=O)OC/C=C/C#CC#C/C=C/COC(=O)NCC(=O)OCCCC | 68.7 µM (inactive) | > 10 µM (inactive) | > 10 µM (inactive) | > 10 µM (inactive) | > 10 | > 10 µM (inactive) | > 10 µM (inactive) | > 10 µM (inactive) | > 10 µM (inactive) | > 10 µM (inactive) | > 10 µM (inactive) | > 10 µM (inactive) | > 10 µM (inactive) | 27 µM (inactive) | > 10 µM (inactive) | > 10 µM (inactive) | > 10 µM (inactive) |  |  |
| CCNC(=O)COc1ccc(Cl)c(C)c1 | > 100 µM (inactive) | > 100 µM (inactive) | > 100 µM (inactive) | > 100 µM (inactive) | > 100 | > 100 µM (inactive) | > 100 µM (inactive) | > 100 µM (inactive) | > 100 µM (inactive) | > 100 µM (inactive) | > 100 µM (inactive) | > 100 µM (inactive) | > 100 µM (inactive) | 86.1 µM (inactive) | > 100 µM (inactive) | > 100 µM (inactive) | > 100 µM (inactive) |  |  |
| C=C(CCC/C(C)=C/C=C/[C@@H](C)CCCc1ccoc1)C[C@@H]1OC(=O)[C@H](C)[C@@H]1O | 10.8 µM (inactive) | 7.59 µM (inactive) | 9.91 µM (inactive) | 11.6 µM (inactive) | 10.1 |  | 8.69 µM (inactive) | 9.33 µM (inactive) | 16.1 µM (inactive) | 6.43 µM (inactive) | 8.09 µM (inactive) | 18.4 µM (inactive) | 6.3 µM (inactive) | 9.77 µM (inactive) | 13.1 µM (inactive) | 5.27 µM (inactive) | 7.85 µM (inactive) | 10.6 µM (inactive) | 9.04 µM (inactive) |
| Cn1ncc2ccc3[nH]c4ccccc4c(=O)c3c21 | 36.5 µM (inactive) | 22.6 µM (inactive) | 23.4 µM (inactive) | 31.4 µM (inactive) | 22.9 | 27.9 µM (inactive) | 26.5 µM (inactive) | 39.2 µM (inactive) | 28.9 µM (inactive) | 11.6 µM (inactive) | 20.6 µM (inactive) | 33.6 µM (inactive) | 17.5 µM (inactive) | 19.9 µM (inactive) | 21.1 µM (inactive) | 16.9 µM (inactive) | 15 µM (inactive) |  |  |
| COc1cc(C(C)c2cc3c(cc2OCCOCCOc2cc4c(cc2C(C)c2cc(OC)c(OC)c(OC)c2)OCO4)OCO3)cc(OC)c1OC (configuration not stated) | > 10 µM (inactive) | > 10 µM (inactive) | > 10 µM (inactive) | > 10 µM (inactive) | > 10 | > 10 µM (inactive) | > 10 µM (inactive) | > 10 µM (inactive) | > 10 µM (inactive) | > 10 µM (inactive) | > 10 µM (inactive) | > 10 µM (inactive) | 89.1 µM (inactive) | 19.1 µM (inactive) | > 10 µM (inactive) | > 10 µM (inactive) | 29.7 µM (inactive) |  |  |
| O=C(Cc1ccccc1)N/N=C(/c1nc2ccc([N+](=O)[O-])cc2nc1O)C(O)c1ccccc1Cl (configuration not stated) | > 100 µM (inactive) | 56.6 µM (inactive) | 46.6 µM (inactive) | 54 µM (inactive) | 40.6 | > 100 µM (inactive) | > 100 µM (inactive) | 60.8 µM (inactive) | 70 µM (inactive) | > 100 µM (inactive) | > 100 µM (inactive) | > 100 µM (inactive) | 41.4 µM (inactive) | > 100 µM (inactive) | > 100 µM (inactive) | > 100 µM (inactive) | > 100 µM (inactive) |  |  |
| O=c1c2ccccc2[nH]c2c(Cl)cc(Cl)c(NC3CCCCC3)c12 | 31.3 µM (inactive) | 15.6 µM (inactive) | 31.5 µM (inactive) | 25.1 µM (inactive) | 30.1 | 18.2 µM (inactive) | 20.7 µM (inactive) | 18.6 µM (inactive) | 23 µM (inactive) | 21.6 µM (inactive) | 17 µM (inactive) | 20.1 µM (inactive) | 36.3 µM (inactive) | 27.2 µM (inactive) | 22.2 µM (inactive) | 16.6 µM (inactive) | 15.3 µM (inactive) |  | 18.5 µM (inactive) |
| C/C(CN1C(=O)c2ccccc2C1=O)=N\NS(=O)(=O)c1cccc([N+](=O)[O-])c1 | > 100 µM (inactive) | > 100 µM (inactive) | > 100 µM (inactive) | > 100 µM (inactive) | > 100 | > 100 µM (inactive) | > 100 µM (inactive) | > 100 µM (inactive) | > 100 µM (inactive) | > 100 µM (inactive) | > 100 µM (inactive) | > 100 µM (inactive) | > 100 µM (inactive) | > 100 µM (inactive) | > 100 µM (inactive) | > 100 µM (inactive) | > 100 µM (inactive) |  |  |
| CCCCNC(=S)Nc1nc(C(=O)NNC(=S)NCc2ccccc2)cs1 | 39.4 µM (inactive) | 26.6 µM (inactive) | 29.6 µM (inactive) | 36.6 µM (inactive) | 10.2 |  | > 100 µM (inactive) | 38.6 µM (inactive) | 19.1 µM (inactive) | 32.9 µM (inactive) | 75 µM (inactive) | > 100 µM (inactive) | 16.3 µM (inactive) |  | 49.8 µM (inactive) | 19 µM (inactive) | 23.9 µM (inactive) | 39.6 µM (inactive) | 30.1 µM (inactive) |
| Cc1c(N2C(=O)C(Cl)C2/C=C/c2ccccc2)c(=O)n(-c2ccccc2)n1C (configuration not stated) | 24.9 µM (inactive) | 20.3 µM (inactive) | 53 µM (inactive) |  |  | 20.1 µM (inactive) | 22.8 µM (inactive) | 17.2 µM (inactive) | 13.4 µM (inactive) | 25.1 µM (inactive) | 7.59 µM (inactive) | 43.9 µM (inactive) | 15.8 µM (inactive) | 34.1 µM (inactive) | 14.3 µM (inactive) | 14.9 µM (inactive) | 28.1 µM (inactive) | 34.6 µM (inactive) | > 100 µM (inactive) |
| COc1cc(CC(C)=O)cc(OC)c1 | > 100 µM (inactive) | 76.7 µM (inactive) |  | > 100 µM (inactive) | 31.6 | 27.3 µM (inactive) | > 100 µM (inactive) | > 100 µM (inactive) | 24.7 µM (inactive) | 50.9 µM (inactive) | > 100 µM (inactive) | > 100 µM (inactive) | 91.2 µM (inactive) | 17.9 µM (inactive) | > 100 µM (inactive) | 60.3 µM (inactive) | 32.6 µM (inactive) | > 100 µM (inactive) | 52.4 µM (inactive) |
| CC(C)(O)[C@@H]1CC[C@@]2(C)CCCC(O)C2(O)C1 (some centres not stated) | > 100 µM (inactive) | > 100 µM (inactive) | > 100 µM (inactive) | > 100 µM (inactive) | > 100 | > 100 µM (inactive) | > 100 µM (inactive) | > 100 µM (inactive) | > 100 µM (inactive) | > 100 µM (inactive) | > 100 µM (inactive) | > 100 µM (inactive) | > 100 µM (inactive) | > 100 µM (inactive) | > 100 µM (inactive) | > 100 µM (inactive) | > 100 µM (inactive) |  |  |
